Consider 47 compounds from US8329739B2, “Phenylimidazole compounds” (Otsuka Pharmaceutical Factory, Inc., priority 2009, dated 2012).

Counter-ions that a name gives are not always drawn. Some results are limits rather than exact numbers.

System in one data set: not given
Experiment: not given
Details: not given
A word on the melting point: it is the temperature of the solid-liquid transition. `COc1cccc(-c2nc(-c3ccc(OCc4ccc(Cl)cc4)cc3OC)c[nH]2)c1.Cl` showed a melting point of 256 to 258 °C.

In turn, `COc1cc(OCc2ccc(Cl)cc2)ccc1-c1c[nH]c(-c2cccc(C)c2)n1.Cl` had a melting point of 217 to 220 °C.

Compound `COc1cc(OCc2ccc(C#N)cc2)ccc1-c1c[nH]c(-c2cccc(C)c2)n1.Cl` yielded a melting point of 243 to 246 °C.

Regarding `COc1cc(OCc2ccc(C#N)cc2)ccc1-c1c[nH]c(-c2cc(Cl)cc(Cl)c2)n1.Cl`, the melting point is > 250 °C.

As to `COc1cc(OCc2ccccc2)ccc1-c1c[nH]c(-c2cccc(C)c2)n1.Cl`, the melting point lay in the range of 194 to 196 °C.

Take `COc1cc(OCc2ccc(Cl)cc2F)ccc1-c1c[nH]c(-c2ccc(F)c(F)c2)n1.Cl`: the melting point was in the range of 251 to 255 °C.

The compound `COc1cc(OCc2ccc(Cl)cc2F)ccc1-c1c[nH]c(-c2ccc(Cl)c(Cl)c2)n1.Cl` registered a melting point of 254 to 258 °C.

In turn, `COc1cc(OCc2ccccc2)ccc1-c1c[nH]c(-c2cccs2)n1.Cl` yielded a melting point of 139 to 142 °C.

Take `CCOC(=O)c1ccc(-c2nc(-c3ccc(OCc4ccccc4)c(OC)c3)c[nH]2)cc1.Cl`: the melting point lay in the range of 211 to 213 °C.

`COc1cc(-c2c[nH]c(-c3ccc(C(=O)O)cc3)n2)ccc1OCc1ccccc1.Cl` had a melting point of 241 to 243 °C.

For `COc1cc(-c2c[nH]c(-c3cccc(F)c3)n2)ccc1OCc1ccc(Br)cc1F.Cl`, the melting point fell in the range of 244 to 247 °C.

Take `COc1cc(OCc2ccc(Br)cc2F)ccc1-c1c[nH]c(-c2cccc(F)c2)n1.Cl`: the melting point lay in the range of 240 to 245 °C.

On to `COc1cc(OCc2ccc(Cl)cc2)ccc1-c1c[nH]c(-c2ccc(C)cc2)n1.Cl`, for which the melting point lay in the range of 241 to 244 °C.

`COc1cc(-c2c[nH]c(-c3ccc(C(F)(F)F)cc3)n2)ccc1OCc1ccc(Br)cc1F` (as salt: hydrochloride) [Example 1, 4-[4-(4-bromo-2-fluorobenzyloxy)-3-methoxyphenyl]-2-[4-(trifluoromethyl)phenyl]-1H-imidazole hydrochloride] had a melting point of 174 to 175 °C.

For `COc1cc(-c2cn(C)c(-c3ccc(C(F)(F)F)cc3)n2)ccc1OCc1ccccc1` [Example 6], the melting point was 138 to 139 °C.

As to `COc1cc(-c2cn(C)c(-c3ccccc3)n2)ccc1OCc1ccccc1` [Example 8], the melting point was 146 to 147 °C.

In turn, `COc1cc(OCc2ccc(C#N)cc2)ccc1-c1c[nH]c(-c2ccccc2)n1` [Example 12] displayed a melting point of 99 to 103 °C.

Compound `COc1cc(-c2cnc(-c3cccs3)[nH]2)ccc1OCc1ccccc1` [Example 14] came in with a melting point of 178 to 181 °C.

As to `COc1cc(OCc2ccc(C#N)cc2)ccc1-c1c[nH]c(-c2cccs2)n1` [Example 21], the melting point was in the range of 193 to 196 °C.

Compound `COc1cc(OCc2ccc(Cl)cc2)ccc1-c1c[nH]c(-c2cccs2)n1` [Example 22] had a melting point of 107 to 109 °C.

In turn, `COc1cc(-c2c[nH]c(-c3ccsc3)n2)ccc1OCc1ccccc1` [Example 25] registered a melting point of 132 to 135 °C.

In turn, `COc1ccc(-c2nc(-c3ccc(OCc4ccccc4)c(OC)c3)c[nH]2)cc1` [Example 27] showed a melting point of 146 to 148 °C.

The compound `COc1cc(-c2c[nH]c(C(C)C)n2)ccc1OCc1ccccc1` [Example 29] came in with a melting point of 148 to 152 °C.

`COc1cc(-c2nc(-c3ccc(C(F)(F)F)cc3)[nH]c2C)ccc1OCc1ccccc1` [Example 34] yielded a melting point of 160 to 165 °C.

Turning to `COc1cc(-c2c[nH]c(C(C)C)n2)ccc1OCc1ccc(Cl)cc1` [Example 35], the melting point was in the range of 126 to 128 °C.

`COc1cc(-c2c[nH]c(C)n2)ccc1OCc1ccccc1` [Example 40] yielded a melting point of 159 to 163 °C.

On to `COc1cc(-c2c[nH]c(-c3ccc(C(F)(F)F)cc3)n2)ccc1O` [Example 41], for which the melting point fell in the range of 197 to 198 °C.

Regarding `COc1cc(-c2c[nH]c(-c3ccc(F)cc3)n2)ccc1O` [Example 44], the melting point was in the range of 116 to 123 °C.

As to `COc1cc(OCc2ccc(C#N)cc2)ccc1-c1c[nH]c(-c2cccc(F)c2)n1` [Example 60], the melting point fell in the range of 257 to 260 °C.

With `COc1cc(-c2c[nH]c(-c3ccccc3)n2)ccc1OCc1ccc(C#N)cc1` [Example 63], the melting point fell in the range of 193 to 196 °C.

The compound `COc1cc(-c2c[nH]c(-c3cccs3)n2)ccc1OCc1ccc(C#N)cc1` [Example 64] returned a melting point of 192 to 193 °C.

The compound `COc1cc(OCc2ccc(Br)cc2F)ccc1-c1c[nH]c(-c2ccc(F)c(F)c2)n1` [Example 89] returned a melting point of 263 to 265 °C.

Turning to `COc1cc(OCc2ccc(Br)cc2F)ccc1-c1c[nH]c(-c2cccc(C)c2)n1` [Example 95], the melting point lay in the range of 120 to 123 °C.

With `COc1cc(O)ccc1-c1c[nH]c(-c2ccccc2)n1` [Example 105], the melting point was 232 to 235 °C.

Turning to `COc1cc(O)ccc1-c1c[nH]c(-c2ccc(C(F)(F)F)cc2)n1` [Example 106], the melting point is > 250 °C.

`COc1cc(O)ccc1-c1c[nH]c(-c2ccc(F)cc2)n1` [Example 107]: the melting point was > 250 °C.

As for `COc1cc(O)ccc1-c1c[nH]c(-c2ccc(C)cc2)n1` [Example 108], the melting point lay within 260 to 262 °C.

As to `COc1cc(OCc2ccccc2)ccc1-c1c[nH]c(-c2cccc(Cl)c2)n1` [Example 122], the melting point lay within 142 to 145 °C.

Compound `COc1cc(OCc2ccccc2)ccc1-c1c[nH]c(-c2cc(Cl)cc(Cl)c2)n1` [Example 125] gave a melting point of 161 to 163 °C.

`COc1cc(OCc2ccccc2)ccc1-c1c[nH]c(-c2ccc(C(C)(C)C)cc2)n1` [Example 129]: the melting point lay within 227 to 229 °C.

In turn, `COc1cc(OCc2ccc(Cl)cc2F)ccc1-c1c[nH]c(-c2ccc(Cl)cc2)n1` [Example 131] came in with a melting point of 191 to 194 °C.

Consider `COc1cc(OCc2ccc(Cl)cc2F)ccc1-c1c[nH]c(-c2cccc(C)c2)n1` [Example 135], for which the melting point was 115 to 120 °C.

With `COc1cc(OCc2ccc(Cl)cc2F)ccc1-c1c[nH]c(-c2ccc(C)cc2)n1` [Example 136], the melting point was 152 to 155 °C.

In a further data set the target is T1, LPL (lipoprotein lipase) (Mus musculus, UniProt P11152).
T1 construct: endogenous in cells; host or cells: C2C12 cells, differentiated
T1 sequence (P11152 28-474): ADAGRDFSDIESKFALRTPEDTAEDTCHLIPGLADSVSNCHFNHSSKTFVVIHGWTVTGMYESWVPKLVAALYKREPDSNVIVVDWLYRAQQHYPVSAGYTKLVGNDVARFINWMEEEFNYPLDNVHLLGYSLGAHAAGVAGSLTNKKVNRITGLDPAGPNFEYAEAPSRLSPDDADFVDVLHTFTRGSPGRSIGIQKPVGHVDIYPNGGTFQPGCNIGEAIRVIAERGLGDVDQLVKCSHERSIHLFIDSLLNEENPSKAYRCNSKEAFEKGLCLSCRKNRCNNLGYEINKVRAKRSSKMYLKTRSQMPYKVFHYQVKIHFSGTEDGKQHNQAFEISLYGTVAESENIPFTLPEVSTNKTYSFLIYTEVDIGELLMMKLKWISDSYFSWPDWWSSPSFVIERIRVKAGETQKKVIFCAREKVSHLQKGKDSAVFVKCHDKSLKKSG
Nature of the data set: Confirmation test of LPL activation effect in mouse skeletal muscle cells (C2C12 cells). The data set is classed as cell-based. Conditions: amount of addition 10 μM, 8 hours exposure, vs control group. On the procedure:
Human skeletal muscle cells (human skeletal muscle myoblasts) or mouse skeletal muscle cells (C2C12 cells) that were seeded onto plates, cultured, and differentiated were exposed to a 0.3% dimethyl sulfoxide-containing culture medium in which the compound of the present invention was dissolved (concentration: 10 μM or 30 μM). The medium was removed 8 hours after exposure, 10 mM of Tris-HCl buffer (150 mM NaCl, 10 μ/mL; containing heparin sodium) was added to the cells, and the cells were incubated at 37° C. in the presence of 5% CO2 for 10 minutes. LPL activity in the supernatant was measured using an LPL activity assay kit (made by Roar Biomedical Inc.). LPL activity was evaluated based on the increase in fluorescence intensity 10 to 70 minutes after mixing the supernatant with the LPL substrate. The mean value of the increase in fluorescence intensity of the cells exposed to a 0.3% dimethyl sulfoxide-containing culture medium […] was used as mean value of the control group. Note that the compounds of Examples 18, 19, 32, 45 and 57 were tested using human skeletal muscle cells, and other compounds were tested using mouse skeletal muscle cells. The rate of increase (%) was calculated from the measured values of LPL activity in the control group and the experimental group, according to the following formula. Rate of increase in LPL activity (%)=[(mean value of the experimental group)−(mean value of the control group)]/(mean value of the control group)×100
As to `COc1cc(-c2c[nH]c(-c3ccc(C(F)(F)F)cc3)n2)ccc1OCc1ccc(Br)cc1F` [Example 1, 4-[4-(4-bromo-2-fluorobenzyloxy)-3-methoxyphenyl]-2-[4-(trifluoromethyl)phenyl]-1H-imidazole hydrochloride], the “Rate of increase in LPL activity” value is 64%.

Regarding `COc1cc(-c2c[nH]c(-c3ccc(F)cc3)n2)ccc1OCc1ccc(C(F)(F)F)cc1` [Example 164], the “Rate of increase in LPL activity” value came out at 4%.

For `COc1cc(-c2c[nH]c(-c3ccc(C(F)(F)F)cc3)n2)ccc1OCc1ccc(C(F)(F)F)cc1` [Example 165], the “Rate of increase in LPL activity” value is reported as 38%.

As for `COc1cc(OCc2ccc(C(F)(F)F)cc2)ccc1-c1c[nH]c(-c2ccc(C(F)(F)F)cc2)n1` [Example 167], the “Rate of increase in LPL activity” value is 37%.

The data set is the same for the next values; noted with them: amount of addition 30 μM, 8 hours exposure, vs control group.
With `COc1cc(-c2c[nH]c(-c3ccc(C(F)(F)F)cc3)n2)ccc1OCc1ccc(Br)cc1F` [Example 1, 4-[4-(4-bromo-2-fluorobenzyloxy)-3-methoxyphenyl]-2-[4-(trifluoromethyl)phenyl]-1H-imidazole hydrochloride], the “Rate of increase in LPL activity” value was 360%.

For `COc1cc(-c2c[nH]c(-c3ccc(F)cc3)n2)ccc1OCc1ccc(C(F)(F)F)cc1` [Example 164], the “Rate of increase in LPL activity” value amounted to 228%.

In the case of `COc1cc(-c2c[nH]c(-c3ccc(C(F)(F)F)cc3)n2)ccc1OCc1ccc(C(F)(F)F)cc1` [Example 165], the “Rate of increase in LPL activity” value worked out at 476%.

As for `COc1cc(OCc2ccc(C(F)(F)F)cc2)ccc1-c1c[nH]c(-c2ccc(C(F)(F)F)cc2)n1` [Example 167], the “Rate of increase in LPL activity” value turned out to be 104%.
